Data reported in patent publication US9688691B2, “Macrocyclic quinazole derivatives and their use as MTKI” (Janssen Pharmaceutica NV, priority 2004, dated 2017).

Columns and labels:
Abl (h) = Abl (h) (Homo sapiens, UniProt P00519); experiment: Kinase profiling, glass-fiber filter technology: Abl; format: biochemical; settings: test concentration of 10^−6 M; read-out: Abl inhibition score
Protocol: (§1) The in vitro inhibition of a panel of kinases was assessed using the glass-fiber filter technology as described by Davies, S. P. et al., Biochem J. (2000), 351; p. 95-105.
(§2) In the glass-fiber filter technology the activity of the kinase of interest is measured using an appropriate substrate that is incubated with the aforementioned kinase protein in the presence of (^33P) radiolabeled ATP. (^33P) Phosporylation of the substrate is subsequently measured as radioactivity bound on a glassfiber-filter.
(§3) All kinases are pre-diluted to a 10× working concentration prior to addition into the assay. The composition of the dilution buffer for each kinase is detailed below.
(§4) All substrates are dissolved and diluted to working stocks in de-ionised water.
(§5) In a final reaction volume of 25 μl, Abl (h) (5-10 mU) is incubated with 8 mM MOPS pH 7.0, 0.2 mM EDTA, 50 μM EAIYAAPFAKKK, 10 mM MgAcetate and [γ-^33P-ATP] (specific activity approx. 500 cpm/pmol, concentration as required). The reaction is initiated by the addition of the MgATP mix. After incubation for 40 minutes at room temperature, the reaction is stopped by the addition of 5 μl of a 3% phosphoric acid solution. 10 μl of the reaction is then spotted onto a P30 filtermat and washed three times for 5 minutes in 75 mM phosphoric acid and once in methanol prior to drying and scintillation counting.

CDK5/p35 human = CDK5/p35 human (Homo sapiens, UniProt Q00535); experiment: Kinase profiling, glass-fiber filter technology: CDK5/p35; format: biochemical; settings: test concentration of 10^−6 M; read-out: CDK5/p35 inhibition score
Protocol: as §1, §2, §3, §4
as §5, with “CDK5/p35 human” for “Abl (h)”, “0.1 mg/ml histone H1,” for “50 μM EAIYAAPFAKKK,”

CDK6/cyclinD3 human = CDK6/cyclinD3 human (Homo sapiens, UniProt Q00534); experiment: Kinase profiling, glass-fiber filter technology: CDK6/cyclinD3; format: biochemical; settings: test concentration of 10^−6 M; read-out: CDK6/cyclinD3 inhibition score
Protocol: as §1, §2, §3, §4
as §5, with “CDK6/cyclinD3 human” for “Abl (h)”, “0.1 mg/ml histone H1,” for “50 μM EAIYAAPFAKKK,”

Chain of Abl (h) (P00519 whole entry): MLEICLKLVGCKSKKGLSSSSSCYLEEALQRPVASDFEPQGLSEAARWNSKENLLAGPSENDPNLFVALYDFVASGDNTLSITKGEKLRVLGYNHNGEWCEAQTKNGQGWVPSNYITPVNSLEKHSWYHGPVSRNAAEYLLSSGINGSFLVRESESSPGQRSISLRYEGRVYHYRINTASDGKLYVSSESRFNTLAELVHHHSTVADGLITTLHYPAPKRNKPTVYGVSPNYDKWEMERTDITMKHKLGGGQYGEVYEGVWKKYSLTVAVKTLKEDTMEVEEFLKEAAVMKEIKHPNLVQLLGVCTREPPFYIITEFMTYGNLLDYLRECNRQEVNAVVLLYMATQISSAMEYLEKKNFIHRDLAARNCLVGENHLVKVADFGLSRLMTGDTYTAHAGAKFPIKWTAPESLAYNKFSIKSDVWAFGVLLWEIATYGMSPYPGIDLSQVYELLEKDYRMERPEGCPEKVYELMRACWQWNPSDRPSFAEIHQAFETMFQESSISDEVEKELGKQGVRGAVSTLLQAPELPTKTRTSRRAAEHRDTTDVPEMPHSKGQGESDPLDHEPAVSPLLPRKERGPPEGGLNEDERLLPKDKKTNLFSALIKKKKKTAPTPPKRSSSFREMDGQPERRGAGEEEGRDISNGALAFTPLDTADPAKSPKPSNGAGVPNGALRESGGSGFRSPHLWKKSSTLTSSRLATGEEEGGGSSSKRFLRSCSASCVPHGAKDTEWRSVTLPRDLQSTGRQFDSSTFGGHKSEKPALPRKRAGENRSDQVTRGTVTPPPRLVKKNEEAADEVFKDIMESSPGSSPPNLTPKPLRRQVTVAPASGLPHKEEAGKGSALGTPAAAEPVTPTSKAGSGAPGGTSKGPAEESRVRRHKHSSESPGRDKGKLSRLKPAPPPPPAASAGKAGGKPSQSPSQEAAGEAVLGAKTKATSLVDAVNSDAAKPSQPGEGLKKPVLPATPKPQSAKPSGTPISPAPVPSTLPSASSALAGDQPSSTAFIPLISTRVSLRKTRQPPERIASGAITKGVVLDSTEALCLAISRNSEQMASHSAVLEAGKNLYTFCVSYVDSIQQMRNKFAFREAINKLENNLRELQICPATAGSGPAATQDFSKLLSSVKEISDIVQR
Chain of CDK6/cyclinD3 human (Q00534 whole entry): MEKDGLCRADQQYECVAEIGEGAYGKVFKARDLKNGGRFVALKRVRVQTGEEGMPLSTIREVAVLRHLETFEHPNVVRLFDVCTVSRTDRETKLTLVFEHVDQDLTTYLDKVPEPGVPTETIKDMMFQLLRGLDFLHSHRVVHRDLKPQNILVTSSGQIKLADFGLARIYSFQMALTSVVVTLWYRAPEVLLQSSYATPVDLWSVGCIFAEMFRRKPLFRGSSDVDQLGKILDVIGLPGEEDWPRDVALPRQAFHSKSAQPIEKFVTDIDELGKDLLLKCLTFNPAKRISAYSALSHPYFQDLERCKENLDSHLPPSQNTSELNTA
Chain of CDK6/cyclinD3 human (P30281 whole entry partner): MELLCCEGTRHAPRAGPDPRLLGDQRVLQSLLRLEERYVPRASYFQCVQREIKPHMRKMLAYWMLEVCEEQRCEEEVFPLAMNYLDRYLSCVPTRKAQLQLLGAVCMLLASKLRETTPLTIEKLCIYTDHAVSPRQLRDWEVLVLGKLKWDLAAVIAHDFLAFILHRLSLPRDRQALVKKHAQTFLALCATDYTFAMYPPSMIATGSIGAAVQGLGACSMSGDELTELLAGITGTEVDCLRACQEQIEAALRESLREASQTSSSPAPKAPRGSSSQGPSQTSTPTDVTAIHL
Chain of CDK5/p35 human (Q00535 whole entry): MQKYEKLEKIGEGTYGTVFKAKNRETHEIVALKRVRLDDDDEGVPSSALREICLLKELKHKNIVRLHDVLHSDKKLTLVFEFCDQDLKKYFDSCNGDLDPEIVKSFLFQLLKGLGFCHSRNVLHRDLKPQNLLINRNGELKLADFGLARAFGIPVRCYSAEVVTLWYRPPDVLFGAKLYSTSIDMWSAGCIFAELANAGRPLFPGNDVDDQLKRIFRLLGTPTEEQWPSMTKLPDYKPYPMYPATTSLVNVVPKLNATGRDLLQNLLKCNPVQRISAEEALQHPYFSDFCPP
Chain of CDK5/p35 human (Q15078 whole entry partner): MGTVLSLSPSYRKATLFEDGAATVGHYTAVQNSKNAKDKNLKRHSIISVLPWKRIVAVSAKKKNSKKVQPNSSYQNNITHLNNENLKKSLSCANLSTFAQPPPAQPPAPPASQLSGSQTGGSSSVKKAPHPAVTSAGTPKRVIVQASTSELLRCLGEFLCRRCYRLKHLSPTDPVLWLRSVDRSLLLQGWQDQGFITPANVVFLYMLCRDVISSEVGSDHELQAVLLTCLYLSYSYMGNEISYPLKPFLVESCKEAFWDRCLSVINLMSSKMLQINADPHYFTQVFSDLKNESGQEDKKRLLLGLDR

## CC(=O)NCCNCCCOc1cc2ncnc3c2cc1OCCCNC(=O)[C@H](C)N(C)Cc1cc(F)c(Cl)cc1N3 [Compound 4]
other
  melting point: 112 °C

## COc1cc2ncnc3c2cc1OCCCN(CCN1CCOCC1)C(=O)CNC(=O)Cc1ccc(Cl)cc1N3 [Compound 15]
Abl (h)
  inhibition at 1 µM: > 80%
CDK5/p35 human
  inhibition at 1 µM: 10 to 30%

## CN1CCCCCOc2cc3c(ncnc3cc2OCCCNCCS(C)(=O)=O)Nc2cc(Cl)c(F)cc2C1 [Compound 18]
Abl (h)
  inhibition at 1 µM: > 80%

## COCCOCCOc1cc2ncnc3c2cc1OCCCCCN(C)Cc1ccc(Br)cc1N3 [Int. 43]
Abl (h)
  inhibition at 1 µM: 60 to 80%
CDK6/cyclinD3 human
  inhibition at 1 µM: 10 to 30%

## COc1cc2ncnc3c2cc1OCCCN(CCCN1CCOCC1)C(=O)[C@H](CC(C)C)NC(=O)Cc1ccc(Br)cc1N3 [Int. 25]
Abl (h)
  inhibition at 1 µM: 10 to 30%

## CC(=O)NCCN1CCN(CCCOc2cc3ncnc4c3cc2OCCCNC(=O)[C@H](C)N(C)Cc2cc(F)c(Cl)cc2N4)CC1 [Compound 6]
Abl (h)
  inhibition at 1 µM: > 80%
other
  melting point: 136 °C

## CN1CCCCCOc2cc3c(ncnc3cc2OC[C@H](O)CNCCOCCO)Nc2cc(Cl)c(F)cc2C1 [Compound 17]
Abl (h)
  inhibition at 1 µM: > 80%
